Experimental data: patent US4812472A, “Isoxazole compounds and pharmaceutical compositions containing them for treatment and prophylaxis of retroviruses diseases” (Chemie Linz Akteingesellschaft, priority 1985, dated 1989)
≈ marks a conversion by molar mass, not a printed value.

Columns and labels:
Rhino type 37 = test: Virus inhibition test (MIC); type: cell-based, rhinovirus type 37; conditions: Enterovirus, in vitro, read-out: Minimum inhibitory conc. (MIC)
Rhino type 26 = test: Virus inhibition test (MIC); type: cell-based, rhinovirus type 26; conditions: Enterovirus, in vitro, read-out: Minimum inhibitory conc. (MIC)
[1] = Toxicity control, minimum toxic concentration (MTC); type: cell-based; conditions: cell density still lower than in the cell control
Rhino type 48 = test: Virus inhibition test (MIC); type: cell-based, rhinovirus type 48; conditions: Enterovirus, in vitro, read-out: Minimum inhibitory conc. (MIC)
Rhino type 3 = test: Virus inhibition test (MIC); type: cell-based, rhinovirus type 3; conditions: Enterovirus, in vitro, read-out: Minimum inhibitory conc. (MIC)
Echo type B-9 = test: Virus inhibition test (MIC); type: cell-based, echovirus type B-9; conditions: Echovirus, in vitro, read-out: Minimum inhibitory conc. (MIC)
Rhino type 32 = test: Virus inhibition test (MIC); type: cell-based, rhinovirus type 32; conditions: Enterovirus, in vitro, read-out: Minimum inhibitory conc. (MIC)
HIV (HTLV-IIIB) = test: microbe, parasite or virus in culture; type: cell-based
ATH8 cell viability = conditions: human, ath8 cells
Polio type 2 = test: microbe, parasite or virus in culture; type: cell-based, poliovirus type 2; conditions: Enterovirus C, read-out: Minimum inhibitory conc. (MIC)
Rhino type 16 = test: Virus inhibition test (MIC); type: cell-based, rhinovirus type 16; conditions: Enterovirus, in vitro, read-out: Minimum inhibitory conc. (MIC)
Rhino type 55 = test: Virus inhibition test (MIC); type: cell-based, rhinovirus type 55; conditions: Enterovirus, in vitro, read-out: Minimum inhibitory conc. (MIC)

Cc1cc(CCCCCCCOc2ccc(C3=NCCO3)s2)on1 [Compound A, 5-(7-(5-(4,5-dihydro-2-oxazolyl)-2-thienyl)-oxyheptyl)-3-methyl-isoxazole] gave an MIC (Rhino type 37) of 0.03 µg/mL (≈ 0.0861 µM), an MIC (Rhino type 26) of 0.3 µg/mL (≈ 0.861 µM) and an MCC [1] of 10 µg/mL. The MIC (Rhino type 48) was 0.1 µg/mL (≈ 0.287 µM), the MIC (Rhino type 3) was 0.03 µg/mL (≈ 0.0861 µM) and the MIC (Echo type B-9) was 0.03 µg/mL (≈ 0.0861 µM). For the same compound, the MIC (Rhino type 32) was 1 µg/mL (≈ 2.87 µM), the “inhibitory effect on HIV-induced cytopathogenicity in ATH8 cells” value (HIV (HTLV-IIIB); ATH8 cells) was “marked inhibitory effect” and the “ID50/MIC50 (in vitro therapeutic index)” value (HIV (HTLV-IIIB); ATH8 cells, day 6-7 after virus inoculation) was 175. The “ID50/MIC50 (in vitro therapeutic index)” value (HIV (HTLV-IIIB); ATH8 cells, day 10 after virus inoculation) was 175, the EC50 (HIV (HTLV-IIIB); Human immunodeficiency virus 1, IIIB, ATH-8, 168 h, read-out: MIC50) was 0.2 µM and the CC50 (ATH8 cell viability) was 35 µM. For the same compound, the CC50 at 240 h (ATH8 cell viability) was 35 µM, the MIC (Polio type 2) was 0.1 µg/mL (≈ 0.287 µM) and the MIC (Rhino type 16) was 0.3 µg/mL (≈ 0.861 µM). It also gave an MIC (Rhino type 55) of 0.3 µg/mL (≈ 0.861 µM).
With Cc1cc(CCCCCCCOc2csc(C3=NCCO3)c2)on1 [Compound B, 5-(7-(2-(4,5-dihydro-2-oxazolyl)-4-thienyl)oxyheptyl)-3-methyl-isoxazole] the MIC (Rhino type 37) was 0.03 µg/mL (≈ 0.0861 µM), the MIC (Rhino type 26) was 1 µg/mL (≈ 2.87 µM) and the MCC [1] was 10 µg/mL. For the same compound, the MIC (Rhino type 48) was 1 µg/mL (≈ 2.87 µM), the MIC (Rhino type 3) was 0.1 µg/mL (≈ 0.287 µM) and the MIC (Echo type B-9) was 1 µg/mL (≈ 2.87 µM). For the same compound, the MIC (Rhino type 32) was 3 µg/mL (≈ 8.61 µM), the MIC (Polio type 2) was 1 µg/mL (≈ 2.87 µM) and the MIC (Rhino type 16) was 1 µg/mL (≈ 2.87 µM). For the same compound, the MIC (Rhino type 55) was 0.3 µg/mL (≈ 0.861 µM).
